Laboratory results as given in patent publication US7718808B2, “Thiazole derivatives” (Kyowa Hakko Kirin Co., Ltd., priority 2003, dated 2010).

With `O=C(Nc1nc(-c2ccco2)c(C(=O)c2ccccn2)s1)c1ccc(Br)o1` [Compound 235, 5-Bromo-N-[4-(2-furyl)-5-(pyridin-2-ylcarbonyl)thiazol-2-yl]furan-2-carboxamide] as the molecule, how does the melting point read?
The melting point was 211 to 212 °C.

For `COCCN(C)c1cc(C(=O)Nc2nc(-c3ccco3)c(C(=O)c3ccccc3)s2)ccn1` [Compound 145, N-[5-Benzoyl-4-(2-furyl)thiazol-2-yl]-2-[N-(2-methoxyethyl)-N-methylamino]pyridine-4-carboxamide], which melting point is on record?
The melting point was 145 to 147 °C.

For `O=C(CN1CCSCC1)Nc1nc(-c2ccco2)c(C(=O)c2ccccn2)s1` [Compound 282, N-[4-(2-Furyl)-5-(pyridin-2-ylcarbonyl)thiazol-2-yl]-2-thiomorpholinoacetamide], which melting point is on record?
Its melting point is 148 to 149 °C.

For `O=C(Nc1nc(-c2ccco2)c(C(=O)C2CCOCC2)s1)c1ccccn1` [Compound 507, N-[4-(2-Furyl)-5-(tetrahydropyran-4-ylcarbonyl)thiazol-2-yl]pyridine-2-carboxamide], which melting point is on record?
The melting point was 185 to 186 °C.

With `O=C(Nc1nc(-c2ccco2)c(C(=O)C2CCOCC2)s1)c1cccc(OC(F)(F)F)c1` [Compound 476, N-[4-(2-Furyl)-5-(tetrahydropyran-4-ylcarbonyl)thiazol-2-yl]-3-(trifluoromethoxy)benzamide] as the molecule, how does the melting point read?
The melting point was 197 to 198 °C.

With `COc1ccc(C(=O)Nc2nc(-c3ccco3)c(C(=O)c3ccccn3)s2)cc1` [Compound 202, N-[4-(2-Furyl)-5-(pyridin-2-ylcarbonyl)thiazol-2-yl]-4-methoxybenzamide] as the molecule, how does the melting point read?
Its melting point is 187 to 188 °C.

With `O=C(Nc1nc(-c2ccco2)c(C(=O)C2CCOCC2)s1)c1cccc2c1OC(F)(F)O2` [Compound 497, 2,2-Difluoro-N-[4-(2-furyl)-5-(tetrahydropyran-4-ylcarbonyl)thiazol-2-yl]-1,3-benzodioxole-4-carboxamide] as the molecule, how does the melting point read?
Its melting point is 206 to 207 °C.

Which melting point does the source give for `CCOCC(=O)Nc1nc(-c2ccco2)c(C(=O)C2CCOCC2)s1` [Compound 532, 2-Ethoxy-N-[4-(2-furyl)-5-(tetrahydropyran-4-ylcarbonyl)thiazol-2-yl]acetamide] here?
Its melting point is 121 to 126 °C.

With `Cc1ccc(C(=O)Nc2nc(-c3ccoc3)c(C(=O)C3CCOCC3)s2)cn1` [Compound 614, N-[4-(3-Furyl)-5-(tetrahydropyran-4-ylcarbonyl)thiazol-2-yl]-2-methylpyridine-5-carboxamide] as the molecule, how does the melting point read?
Its melting point is 217 to 219 °C.

For `O=C(Nc1nc(-c2ccco2)c(C(=O)C(F)(F)F)s1)c1ccncc1` [Compound 380, N-[4-(2-Furyl)-5-(trifluoroacetyl)thiazol-2-yl]pyridine-4-carboxamide], which melting point is on record?
The melting point was 268 to 270 °C.

Which melting point does the source give for `COC1CCC(C(=O)c2sc(NC(=O)c3ccncc3)nc2-c2ccco2)CC1` (centres unmarked) [Compound 442, N-[4-(2-Furyl)-5-(4-methoxycyclohexylcarbonyl)thiazol-2-yl]pyridine-4-carboxamide] here?
Its melting point is 180 to 187 °C.

With `CC(C)(O)CN1CCN(CC(=O)Nc2nc(-c3ccco3)c(C(=O)C3CCOCC3)s2)CC1` [Compound 565, N-[4-(2-Furyl)-5-(tetrahydropyran-4-ylcarbonyl)thiazol-2-yl]-2-[4-(2-hydroxy-2-methylpropyl)piperazin-1-yl]acetamide] as the molecule, how does the melting point read?
Its melting point is 106 to 108 °C.

Which melting point does the source give for `O=C(Nc1nc(-c2ccco2)c(C(=O)c2ccccn2)s1)c1ccnc(N2CCCCC2)c1` [Compound 218, N-[4-(2-Furyl)-5-(pyridin-2-ylcarbonyl)thiazol-2-yl]-2-piperidinopyridine-4-carboxamide] here?
Its melting point is 136 to 141 °C.

Which melting point does the source give for `O=C(Nc1nc(-c2ccco2)c(C(=O)C2CCOCC2)s1)c1ccc(F)cc1F` [Compound 490, 2,4-Difluoro-N-[4-(2-furyl)-5-(tetrahydropyran-4-ylcarbonyl)thiazol-2-yl]benzamide] here?
The melting point was 213 to 215 °C.

With `O=C(Nc1nc(-c2ccco2)c(-c2ccc(=O)n(Cc3ccccc3)c2)s1)c1ccncc1` [Compound 128, N-[5-(1-Benzyl-2-oxo-1,2-dihydropyridin-5-yl)-4-(2-furyl)thiazol-2-yl]pyridine-4-carboxamide] as the molecule, how does the melting point read?
Its melting point is 215 to 218 °C.

Which melting point does the source give for `O=C(Nc1nc(-c2ccco2)c(C(=O)c2ccc(N3CCOCC3)nc2)s1)c1ccncc1` [Compound 324, N-[4-(2-Furyl)-5-(2-morpholinopyridin-5-ylcarbonyl)thiazol-2-yl]pyridine-4-carboxamide] here?
Its melting point is 195 to 205 °C.

For `Cc1ccc(-c2nc(NC(=O)c3ccncc3)sc2-c2ccncc2)o1` [Compound 601, N-[4-(5-Methylfuran-2-yl)-5-(4-pyridyl)thiazol-2-yl]pyridine-4-carboxamide], which melting point is on record?
The melting point was 274 to 276 °C.

With `CC(C)NC(=O)Nc1nc(-c2ccco2)c(C(=O)c2ccccn2)s1` [Compound 258, N-[4-(2-Furyl)-5-(pyridin-2-ylcarbonyl)thiazol-2-yl]-N′-isopropylurea] as the molecule, how does the melting point read?
Its melting point is 182 to 186 °C.

With `COc1ccccc1C(=O)Nc1nc(-c2ccco2)c(C(=O)C2CCOCC2)s1` [Compound 461, N-[4-(2-Furyl)-5-(tetrahydropyran-4-ylcarbonyl)thiazol-2-yl]-2-methoxybenzamide] as the molecule, how does the melting point read?
The melting point was 181 to 184 °C.

For `O=C(Nc1nc(-c2ccco2)c(C(=O)c2ccccc2)s1)c1ccnc(CN2CCOCC2)c1` [Compound 144, N-[5-Benzoyl-4-(2-furyl)thiazol-2-yl]-2-(morpholinomethyl)pyridine-4-carboxamide], which melting point is on record?
The melting point was 212 to 213 °C.

Which melting point does the source give for `COCC(=O)Nc1nc(-c2ccco2)c(C(=O)C2CCOCC2)s1` [Compound 530, N-[4-(2-Furyl)-5-(tetrahydropyran-4-ylcarbonyl)thiazol-2-yl]-2-methoxyacetamide] here?
Its melting point is 148 to 149 °C.

For `Cc1ccc(C(=O)c2sc(NC(=O)c3ccc(C#N)cc3)nc2-c2ccco2)cn1` [Compound 314, 4-Cyano-N-[4-(2-furyl)-5-(2-methylpyridin-5-ylcarbonyl)thiazol-2-yl]benzamide], which melting point is on record?
Its melting point is 261 to 265 °C.

With `CN(C)Cc1ccc(C(=O)Nc2nc(-c3ccco3)c(C(=O)C3CCOCC3)s2)cc1` [Compound 479, 4-(Dimethylaminomethyl)-N-[4-(2-furyl)-5-(tetrahydropyran-4-ylcarbonyl)thiazol-2-yl]benzamide] as the molecule, how does the melting point read?
Its melting point is 109 to 112 °C.

For `O=C(CN1CCC2(CC1)OCCO2)Nc1nc(-c2ccco2)c(C(=O)C2CCOCC2)s1` [Compound 554, 2-(1,4-Dioxa-8-azaspiro[4.5]decan-8-yl)-N-[4-(2-furyl)-5-(tetrahydropyran-4-ylcarbonyl)thiazol-2-yl]acetamide], which melting point is on record?
Its melting point is 186 to 187 °C.

Which melting point does the source give for `O=C(Nc1nc(-c2ccco2)c(C(=O)c2ccc(N3CCC(O)CC3)nc2)s1)c1ccncc1` [Compound 326, N-{4-(2-Furyl)-5-[2-(4-hydroxypiperidino)pyridin-5-ylcarbonyl]thiazol-2-yl}pyridine-4-carboxamide] here?
Its melting point is 264 to 268 °C.

Which melting point does the source give for `CN1CCN(CC(=O)Nc2nc(-c3ccco3)c(C(=O)c3ccccn3)s2)CC1` [Compound 272, N-[4-(2-Furyl)-5-(pyridin-2-ylcarbonyl)thiazol-2-yl]-2-(4-methylpiperazin-1-yl)acetamide] here?
The melting point was 136 to 145 °C.

With `CC(C)N1CCN(CC(=O)Nc2nc(-c3ccco3)c(C(=O)c3ccccn3)s2)CC1` [Compound 274, N-[4-(2-Furyl)-5-(pyridin-2-ylcarbonyl)thiazol-2-yl]-2-(4-isopropylpiperazin-1-yl)acetamide] as the molecule, how does the melting point read?
Its melting point is 154 to 155 °C.

With `O=C(Nc1nc(-c2ccco2)c(C(=O)C2CCOCC2)s1)c1ccoc1` [Compound 516, N-[4-(2-Furyl)-5-(tetrahydropyran-4-ylcarbonyl)thiazol-2-yl]furan-3-carboxamide] as the molecule, how does the melting point read?
The melting point was 236 to 238 °C.

For `CC(C)(C)C(=O)Nc1nc(-c2ccco2)c(-c2ccncc2)s1` [Compound 104, N-[4-(2-Furyl)-5-(4-pyridyl)thiazol-2-yl]-2,2-dimethylpropanamide], which melting point is on record?
The melting point was 240 to 241 °C.

With `COc1ccc(C(=O)Nc2nc(-c3ccco3)c(C(=O)C3CCOCC3)s2)cc1OC` [Compound 487, N-[4-(2-Furyl)-5-(tetrahydropyran-4-ylcarbonyl)thiazol-2-yl]-3,4-dimethoxybenzamide] as the molecule, how does the melting point read?
Its melting point is 289 to 292 °C.

For `COc1ccccc1C(=O)Nc1nc(-c2ccco2)c(C(=O)c2ccccn2)s1` [Compound 200, N-[4-(2-Furyl)-5-(pyridin-2-ylcarbonyl)thiazol-2-yl]-2-methoxybenzamide], which melting point is on record?
The melting point was 205 to 208 °C.

With `O=C(Nc1nc(-c2ccco2)c(C(=O)c2ccccn2)s1)c1cncc(Br)c1` [Compound 226, 5-Bromo-N-[4-(2-furyl)-5-(pyridin-2-ylcarbonyl)thiazol-2-yl]pyridine-3-carboxamide] as the molecule, how does the melting point read?
The melting point was 259 to 262 °C.

Which melting point does the source give for `O=C(Nc1nc(-c2ccco2)c(C(=O)c2ccccn2)s1)c1ccc2snnc2c1` [Compound 244, N-[4-(2-Furyl)-5-(pyridin-2-ylcarbonyl)thiazol-2-yl]-1,2,3-benzothiadiazole-5-carboxamide] here?
Its melting point is 213 to 218 °C.

With `CCOC(=O)Nc1nc(-c2ccco2)c(C(=O)c2ccccn2)s1` [Compound 250, Ethyl N-[4-(2-furyl)-5-(pyridin-2-ylcarbonyl)thiazol-2-yl]carbamate] as the molecule, how does the melting point read?
Its melting point is 158 to 159 °C.

For `CN1CCCN(CC(=O)Nc2nc(-c3ccco3)c(C(=O)C3CCOCC3)s2)CC1` [Compound 576, N-[4-(2-Furyl)-5-(tetrahydropyran-4-ylcarbonyl)thiazol-2-yl]-2-(4-methyl-1,4-diazepan-1-yl)acetamide], which melting point is on record?
Its melting point is 94 to 96 °C.

Which melting point does the source give for `CN1CCN(c2ccc(C(=O)c3sc(NC(=O)c4ccncc4)nc3-c3ccco3)cn2)CC1` [Compound 325, N-(4-(2-Furyl)-5-[2-(4-methylpiperazin-1-yl)pyridin-5-ylcarbonyl]thiazol-2-yl)pyridine-4-carboxamide] here?
Its melting point is 195 to 205 °C.

For `O=C(CN1CCCC1)Nc1nc(-c2ccco2)c(C(=O)C2CCOCC2)s1` [Compound 536, N-[4-(2-Furyl)-5-(tetrahydropyran-4-ylcarbonyl)thiazol-2-yl]-2-(1-pyrrolidinyl)acetamide], which melting point is on record?
The melting point was 115 to 117 °C.

Which melting point does the source give for `Cc1cncc(C(=O)Nc2nc(-c3ccco3)c(C(=O)c3ccccn3)s2)c1` [Compound 223, N-[4-(2-Furyl)-5-(pyridine-2-ylcarbonyl)thiazol-2-yl]-5-methylpyridine-3-carboxamide] here?
Its melting point is 245 to 248 °C.
